Tests used:
[1] = In vivo PK of ortho phosphate bearing 3-AP prodrugs, single intravenous dose, beagle dog; settings: for V/F of 3-AP: 3-AP in dog after i.v. prodrug; for Cmax of 3-AP: equimolar doses (equivalent to 3 mg/kg of 3-AP)
Procedure: The pharmacokinetics of 3-AP prodrugs were characterized following administration of a single intravenous dose of 7.2-8.5 mg/kg of 3-AP phosphate prodrugs (equivalent to 3 mg/kg of 3-AP) to a beagle dog. The animal was dosed once with each prodrug weekly. After each dose, a washout period of at least 6 days was maintained before the next dose was administered. Concentrations of 3-AP (Triapine) and prodrug in serum were determined by HPLC and used to calculate various PK parameters. These PK parameters were compared to those of 3-AP from equimolar doses from a separate study. Mean serum drug concentration versus time data were analyzed by both compartmental and non-compartmental models. AUC, total body clearance (Cl), steady-state volume of distribution (Vd,ss), terminal half-life (T1/2), Cmax, Tmax were calculated for both 3-AP and the prodrugs.
Ortho-phosphate prodrug was shown previously to undergo rapid bioconversion to 3-AP when incubated in vitro with alkaline phosphatase. […] At no time have we been able to detect the presence of the intermediary phenol which is the expected cleavage product. […] The 4-chloro (16), 5-methoxy (9) and 5-fluoro (7) analogs were promising in this regard as reflected in their AUCs and half-lives.
Pharmacokinetic parameters of 3-AP itself following i.v. administration of equimolar doses of the prodrugs are presented in Table 3, below.

[2] = system: M109 murine lung carinoma; experiment: Activity in the M109 Lung Carcinoma Model; type: in vivo, Balb/c mice; settings: for Relative Activity: CTX=Cytoxan
Text: Twelve (12) 3-AP prodrugs have been evaluated for efficacy and toxicity using the M109 murine lung carinoma model in Balb/c mice. The procedure of the experiment is as follows: eight week aged female Balb/c mice (about 20 grams) were subcutaneously inoculated with 5×10^5/mouse of M109 murine lung carinoma cells at the right flank on day 0. The mice were then randomly grouped and each group consisted of 8-10 mice. 3-AP was used with the Triapine™ formulation while all 3-AP prodrugs were either dissolved or suspended in sterile deionized water. The body weight of mice and the tumor volume were measured twice weekly until the tumor in the control group became necrotic or at least one animal was dead in the control group.

[3] = Solubility in aqueous solution; type: physicochemical
[4] = Pharmacokinetic Study in beagle dogs at 20-80 mg/kg; type: in vivo, beagle dogs (Canis familiaris); settings: 30 and 40 mg/kg level
Procedure: Drug levels were determined for the animals at the intervals which are indicated in attached FIGS. 12-15.

[5] = Rising dose pharmacokinetic and toxicokinetic study in dogs with clinical observations; type: in vivo; settings: dog, Triapine itself dosed at 3 mg/kg, separate study
Procedure: Initially, both prodrugs were studied at a single dose of 7.5-7.7 mg/kg (equivalent to 3 mg/kg of Triapine).
PK parameters of Triapine and the two prodrugs are presented in Tables 4 and 5 and are compared to those obtained, in a separate study, from administration of 3 mg/kg of Triapine (equivalent to approximately 7.5 mg/kg of prodrugs).
Serum prodrug peak concentrations and AUCs, on the other hand, were not linear with dose, and appeared to be saturated at the doses investigated. Serum concentration-time profiles of prodrugs and Triapine are presented in attached FIGS. 4 and 5. […] The sustained serum Triapine levels were presumably attributable to the high serum levels of prodrugs as well as their low total body clearance.
Treatment-related clinical observations were recorded for both dogs. […] These observations were not present on day 2. The only adverse clinical sign on day 2 was the absence of stool.
Treatment-related clinical observations were recorded for the female treated at 80 mg/kg. […] In addition, the dog was pale (pallor), diarrhea was noted, and had yellow mucous in the stool. All observations were noted on day 1 and the dog was recovered on day 2.

Human serum stability = type: in vitro ADME; settings: incubation in human serum
Procedure: Bioconversion of prodrugs to 3-AP catalyzed by alkaline phosphatase. The bioactivation of dimethyl para-prodrug and a subset of the ortho phosphate prodrugs was studied using 4.65×10^−5 unit of phosphatase enzyme solution (Type VII-SA, from Bovine Intestinal Mucose, Sigma). Upon incubation with phosphatase, all the prodrugs were converted cleanly to the parent drug 3-AP. Under these experimental conditions, there was no significant increase in the half-life (T1/2) of bioactivation of ortho phosphate prodrugs compared to that of unsubstituted ortho prodrug (Table 1, below). Human serum stability studies were conducted by incubating the prodrugs at 37° C. in human serum.

solid tumors = settings: phase 1, patients with solid tumors; cited from earlier work
M109 lung carinoma cells = experiment: Efficacy of 3-AP prodrugs on M109 Lung Carcinoma in Balb/c Mice; type: in vivo; settings: M109-bearing Balb/c mice
Text: Drug treatment was started on day 5 according to the above schedule. […] The drinking water was autoclaved before use.

[6] = 3-AP in dog serum after i.v. prodrug, equimolar doses
[7] = 3-AP in dog serum after i.v. prodrug
[8] = prodrug in dog serum, single i.v. dose 7.2-8.5 mg/kg
[9] = prodrug in dog serum, single i.v. dose 7.2-8.5 mg/kg (equivalent to 3 mg/kg of 3-AP)
[10] = prodrug in dog, single i.v. dose 7.2-8.5 mg/kg
[11] = 60QD mpk ip, day 3-7, 10-14, 17-21
[12] = 5.5 (bid) mpk ip, day 3-7, 10-14
[13] = 100QD mpk ip, day 3-7, 10-14, 17-21

| SMILES | V/F of 3-AP ([1]; equimolar doses) | AUC of 3-AP [1, 6] | T1/2 of 3-AP [1, 6] | Cmax of 3-AP [1, 7] | AUC of prodrug [1, 8] | T1/2 of prodrug [1, 8] | Cmax of prodrug [1, 9] | Cl of prodrug [1, 10] | Vss of prodrug [1, 10] | BW Loss (%) [2, 11] | Inhibition (%) [2, 11] | Relative Activity [2, 11] | further results |
| --- | --- | --- | --- | --- | --- | --- | --- | --- | --- | --- | --- | --- | --- |
| NC(=S)N/N=C/c1ncccc1NC(=O)OCc1cc(Cl)cc(Cl)c1OP(=O)(O)O [3,5-Di-Cl-(12)] | 3.99 L/kg | 163 µg·min/L | 0.9 h | 2.1 µg/mL | 6939 µg·min/L | 0.567 h | 140 µg/mL | 1.2 mL/min/kg | 0.08 L/kg | 9.0% | 58% | <CTX | – |
| NC(=S)N/N=C/c1ncccc1N [3-AP (1A)] | – | – | – | – | – | – | – | – | – | – | – | – | half life of 3-AP itself in the dog ([1]; 3-AP itself dosed, dog serum): ~1.5 h; BW Loss (%) [2, 12]: 8.09%; Inhibition (%) [2, 12]: 60%; Relative Activity [2, 12]: <CTX; solubility in aqueous solution [3]: less than 0.1 mg/ml; toxicity to the animals [4]: toxic; Cmax ([5]; Table 5): 2.3 µg/mL; AUC of Triapine [5]: 124 mg·min/L; Cmax of Triapine [5]: 2.3 µg/mL; V/F of Triapine [5]: 3.57 L/kg |
| Cc1cccc(COC(=O)Nc2cccnc2/C=N/NC(N)=S)c1OP(=O)(O)O [3-CH3-(15)] | 5.18 L/kg | 998 µg·min/L | 7.8 h | 1.5 µg/mL | 66756 µg·min/L | 5.3 h | 147 µg/mL | 0.11 mL/min/kg | 0.08 L/kg | – | – | – | Tmax of 3-AP [1, 6]: 7.8 min; BW Loss (%) ([2]; 60QD mpk ip, day 3-7, 10-14): 7.9%; Inhibition (%) ([2]; 60QD mpk ip, day 3-7, 10-14): 64%; Relative Activity ([2]; 60QD mpk ip, day 3-7, 10-14): <CTX |
| NC(=S)N/N=C/c1ncccc1NC(=O)OCc1cc(Cl)c(Cl)cc1OP(=O)(O)O [4,5-Di-Cl-(13)] | 3.14 L/kg | 392 µg·min/L | 1.7 h | 2.7 µg/mL | 21499 µg·min/L | – | 220 µg/mL | – | – | 10.0% | 57% | <CTX | – |
| COc1ccc(COC(=O)Nc2cccnc2/C=N/NC(N)=S)c(OP(=O)(O)O)c1 [4-CH3O (17)] | – | – | – | – | – | – | – | – | – | – | – | – | Half-life, Human Serum 37° C. (Human serum stability): 13.3 h |
| NC(=S)N/N=C/c1ncccc1NC(=O)OCc1c(OP(=O)(O)O)ccc(Cl)c1Cl [5,6-Di-Cl-(14)] | 2.32 L/kg | – | 1.6 h | 3.6 µg/mL | 34211 µg·min/L | – | 202 µg/mL | – | – | 7.0% | 59% | <CTX | – |
| NC(=S)N/N=C/c1ncccc1NC(=O)OCc1cc(C(F)(F)F)ccc1OP(=O)(O)O [5-CF3-(11)] | 2.74 L/kg | 280 µg·min/L | 1.1 h | 3.0 µg/mL | 9579 µg·min/L | 0.717 h | 156 µg/mL | 0.86 mL/min/kg | 0.08 L/kg | – | – | – | BW Loss (%) [2, 13]: 9.1%; Inhibition (%) [2, 13]: 77%; Relative Activity [2, 13]: <CTX |
| NC(=S)N/N=C/c1ccc(O)cn1 [5-HP] | – | – | – | – | – | – | – | – | – | – | – | – | activity in patients (solid tumors): inactive |
| NC(=S)N/N=C/c1ncccc1NC(=O)OCc1cc([N+](=O)[O-])ccc1OP(=O)(O)O [5-NO2-(8)] | 4.27 L/kg | 84 µg·min/L | 0.5 h | 1.9 µg/mL | 3396 µg·min/L | 0.317 h | 126 µg/mL | 2.33 mL/min/kg | 0.12 L/kg | 9.7% | 33% | <<CTX | – |
| NC(=S)N/N=C/c1ncccc1NC(=O)OCc1ccccc1OP(=O)(O)O [Ortho- (3), reference compound] | – | 698 µg·min/L | – | – | 63309 µg·min/L | – | – | – | – | – | – | – | Cmax ([1]; beagle, iv, prodrug in dog serum, single i.v. dose 7.2-8.5 mg/kg (equivalent to 3 mg/kg of 3-AP)): 125 µg/mL; half-life ([1]; beagle, iv, prodrug in dog serum, single i.v. dose 7.2-8.5 mg/kg, read-out: T1/2 of prodrug (converted)): 5.9 h; clearance ([1]; beagle, serum, iv, prodrug in dog, single i.v. dose 7.2-8.5 mg/kg, read-out: Cl of prodrug): 0.11 mL/min/kg; Vd ([1]; beagle, serum, iv, prodrug in dog, single i.v. dose 7.2-8.5 mg/kg, read-out: Vss of prodrug): 0.14 L/kg; BW Loss (%) ([2]; 48QD mpk ip, day 5-9, 12-16): 12.6%; Inhibition (%) ([2]; 48QD mpk ip, day 5-9, 12-16): 70%; Relative Activity ([2]; 48QD mpk ip, day 5-9, 12-16): <CTX; activity versus cytoxan ([2]; M-109 solid tumor bearing mice): comparable activity to that of cytoxan; efficacy and toxicity versus parent 3-AP ([2]; M-109 solid tumor bearing mice): better efficacy with reduced toxicity than the parent 3-AP; efficacy on M109 lung carcinoma compared with the 3-AP parent drug at the MTD ([2]; mice): better efficacy; reason treatment was stopped before the end of the experiment (M109 lung carinoma cells): severe toxic reactions or mortality of the mice; toxicity to the animals [4]: toxic |
| N/C(S)=N/N=C/c1ncccc1NC(=O)OCc1ccc(OP(=O)(O)O)cc1 [Para- (2), reference compound] | – | 74.5 µg·min/L | – | – | – | – | – | – | – | – | – | – | – |

— US6458816B1, “Modified prodrug forms of AP/AMP” (Vion Pharmaceuticals, Inc., priority 2000, dated 2002)
